Results as given in patent US6264974A, “Buccal and sublingual administration of physostigmine” (priority 1998, dated 2001).
Entries after “also recorded” stand apart in the source; their conditions may differ.

Assay: Intravenous and buccal pharmacokinetics of Physostigmine in rats (plasma levels by HPLC with fluorimetric detector)
Assay type: in vivo, male Lewis rats
Conditions: rat plasma, 200 μg/kg, Physostigmine hemisulfate in normal saline
Description: Lewis Rats were used to evaluate the buccal/sublingual delivery of Physostigmine. The Physostigmine drug concentration in rat plasma was determined using a conventional high pressure liquid chromatography analytical procedure which measures drug concentration by fluorimetric detector.
To determine whether Physostigmine would be absorbed by mucosa and produce a sustained plasma level, two separate groups of male Lewis rats, were administered Physostigmine hemisulfate, a salt of Physostigmine, intravenously or buccally in normal saline. The rats weighed approximately 300 g and were fasted overnight prior to dosing. All rats were anesthetized with pentobarbital (50 mg/kg) prior to dosing. The jugular vein was cannulated and attached to a syringe through 3-way stopcock for blood collections. Blood samples (1 ml) were withdrawn through the jugular cannula and replaced with an equal volume of fresh blood (37 degrees C) from separate blood donor rats after each sampling as a function of time. […]
The terminal decay rate constant (k) and the terminal half-life (t1/2) after intravenous administration was calculated by linear regression of the terminal portion of the individual sample In Cp (plasma drug concentration) versus time plot of FIG. 1.

## CNC(=O)Oc1ccc2c(c1)[C@]1(C)CCN(C)[C@@H]1N2C [Physostigmine, 1,2,3,3a,8,8a-hexahydro-1,3a,8-trimethylpyrrolo[2,3-b]indol-5-ol methylcarbamate]
0.2 mg/kg, intravenous, FIG. 1, read-out: plasma half-life (terminal half-life, t1/2)
  half-life: 25 min
buccal, esophagus ligated, over eight hours (t1/2 could not be determined), FIG. 2
  plasma concentration vs. time profile: did not decay for the period of the experiment; also recorded: highly sustained
